# Data: ChEMBL document CHEMBL3352595, “Anti-inflammatory secoiridoid glycosides from Gentianella azurea” (Bioorg Med Chem Lett, 2014)
# Tested on: RAW264.7
# Assay: Anti-inflammatory activity in mouse RAW264.7 cells assessed as inhibition of LPS-induced nitric oxide production
# Assay type: functional, cell-based
row,Compound,IC50 [µM]
1,C=C[C@H]1[C@H](O[C@@H]2O[C@H](COC(=O)c3cccc(O)c3O[C@@H]3O[C@H](CO)[C@@H](O)[C@H](O)[C@H]3O)[C@@H](O)[C@H](O)[C@H]2O)OC=C2C(=O)OCC[C@H]21,> 200
2,C=C[C@H]1[C@H](O[C@@H]2O[C@H](CO)[C@@H](O)[C@H](O)[C@H]2OC(=O)/C=C/c2ccc(O)cc2)OC=C2C(=O)OCC[C@]21O,> 200
3,C=C[C@H]1[C@H](O[C@@H]2O[C@H](COC(C)=O)[C@@H](O)[C@H](OC(C)=O)[C@H]2OC(C)=O)OC=C2C(=O)OCC[C@H]21,> 200
4,C=C[C@H]1[C@H](O[C@@H]2O[C@H](COC(=O)c3cccc(O)c3O[C@@H]3O[C@H](CO)[C@@H](O)[C@H](O)[C@H]3O)[C@@H](O)[C@H](O)[C@H]2OC(=O)c2cccc(O)c2O)OC=C2C(=O)OCC[C@H]21,> 200
5,C=C[C@H]1[C@H](O[C@@H]2O[C@H](COC(C)=O)[C@@H](O)[C@H](OC(C)=O)[C@H]2OC(=O)c2cccc(O)c2O)OC=C2C(=O)OCC[C@H]21,> 200
6,C=C[C@H]1[C@H](O[C@@H]2O[C@H](CO)[C@@H](OC(=O)c3cccc(O)c3O[C@@H]3O[C@H](CO)[C@@H](O)[C@H](O)[C@H]3O)[C@H](O)[C@H]2O)OC=C2C(=O)OCC[C@H]21,> 200
7,C=C[C@H]1[C@H](O[C@@H]2O[C@H](COC(C)=O)[C@@H](OC(C)=O)[C@H](O)[C@H]2OC(=O)c2cccc(O)c2O)OC=C2C(=O)OCC[C@H]21,0.69

# The next lines start with the values.
row,IC50 [µM],Compound
1,5.18,C=C[C@H]1[C@H](O[C@@H]2O[C@H](COC(C)=O)[C@@H](OC(=O)c3cccc(O)c3O[C@@H]3O[C@H](CO)[C@@H](O)[C@H](O)[C@H]3O)[C@H](OC(C)=O)[C@H]2OC(=O)c2cccc(O)c2O)OC=C2C(=O)OCC[C@H]21
2,> 200,C=C[C@H]1[C@H](O[C@@H]2O[C@H](COC(=O)c3cccc(O)c3O[C@@H]3O[C@H](CO)[C@@H](O)[C@H](O)[C@H]3O)[C@@H](O)[C@H](OC(C)=O)[C@H]2OC(=O)c2cccc(O)c2O)OC=C2C(=O)OCC[C@H]21
3,52.8,C=C[C@H]1[C@H](O[C@@H]2O[C@H](COC(C)=O)[C@@H](OC(C)=O)[C@H](O)[C@H]2OC(C)=O)OC=C2C(=O)OCC[C@H]21
4,> 200,C=C[C@H]1[C@H](O[C@@H]2O[C@H](COC(C)=O)[C@@H](OC(C)=O)[C@H](OC(C)=O)[C@H]2O)OC=C2C(=O)OCC[C@H]21
